# Laboratory results: patent publication US20240116985A1, “STAPLED PEPTIDES AND METHODS THEREOF” (priority 2020, published 2024)
# pIC50: −log10 of the molar value. Read-outs that look alike come from different tables or passages of the source.
# Legend:
# [1] = molecular target: T1, full-length beta-Catenin (Uniprot ID P35222) (Homo sapiens, UniProt P35222); assay: Fluorescence polarization IC50 (beta-catenin / 5FAM-TCF4 10-53 competition); assay type: binding
# T1 construct: 10 nM full-length beta-Catenin (Uniprot ID P35222)
# T1 sequence (P35222 1-781): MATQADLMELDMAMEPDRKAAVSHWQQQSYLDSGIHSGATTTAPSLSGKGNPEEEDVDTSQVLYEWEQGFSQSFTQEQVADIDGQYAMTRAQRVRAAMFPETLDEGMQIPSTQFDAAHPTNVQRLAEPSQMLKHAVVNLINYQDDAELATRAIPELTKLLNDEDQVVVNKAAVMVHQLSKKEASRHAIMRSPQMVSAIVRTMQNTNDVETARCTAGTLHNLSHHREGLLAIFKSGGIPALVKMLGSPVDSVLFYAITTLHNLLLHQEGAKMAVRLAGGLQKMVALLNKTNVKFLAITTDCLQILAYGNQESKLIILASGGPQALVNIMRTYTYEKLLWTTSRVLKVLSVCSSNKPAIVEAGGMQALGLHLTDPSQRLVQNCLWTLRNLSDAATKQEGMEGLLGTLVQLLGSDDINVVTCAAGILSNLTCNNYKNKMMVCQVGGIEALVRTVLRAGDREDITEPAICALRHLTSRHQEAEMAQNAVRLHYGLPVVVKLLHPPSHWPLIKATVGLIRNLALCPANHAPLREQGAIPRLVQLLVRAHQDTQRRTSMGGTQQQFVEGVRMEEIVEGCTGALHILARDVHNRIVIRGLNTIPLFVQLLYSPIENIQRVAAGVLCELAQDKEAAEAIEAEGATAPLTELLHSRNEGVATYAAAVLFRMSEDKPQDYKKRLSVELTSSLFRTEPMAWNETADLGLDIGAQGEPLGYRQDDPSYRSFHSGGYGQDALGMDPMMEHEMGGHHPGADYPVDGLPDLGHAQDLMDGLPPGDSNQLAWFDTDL
# CHI Log D procedure = assay type: physicochemical; details: for CHI Log D: pH 7.4; for chromatographic logD: pH 7.4, CHI Log D
# Solubility in PBS = assay type: physicochemical
# In short: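 Solubility is derived from HPLC peak areas: the ratio of the PBS supernatant peak to a 50 μM DMSO peptide peak, times 50 uM.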
# [2] = fluorescence polarization, read-out: beta-Catenin FP IC50
Structure (SMILES),"pIC50 [1, 2]",pIC50 ([1]; read-out: FP EC50),CHI Log D (CHI Log D procedure),Solubility (Solubility in PBS) [µM],chromatographic logD (CHI Log D procedure),Solubility (Solubility in PBS; Solubility (uM)) [µM]
"CC(=O)N1CCC[C@]12CC=CCCCC1(CCCC=CCCCCCC[C@@](C)(C(=O)N[C@@H](CCc3ccccc3)C(=O)N[C@@H](Cc3csc4ccccc34)C(=O)N[C@@H](CCC(N)=O)C(N)=O)NC(=O)[C@H](CC(N)=O)NC(=O)[C@H](Cc3ccccc3)NC(=O)[C@H](C)NC(=O)[C@H](C)NC(=O)[C@H](CCC(=O)O)NC(=O)[C@H](CC(=O)O)NC1=O)NC(=O)[C@H](C)NC(=O)[C@H](CC(=O)O)NC2=O (stereo partly drawn) [I-443, Ac-PL3-Asp-Ala-B5-Asp-Glu-Ala-Ala-Phe-Asn-S8-hPhe-BztA-Gln-NH2]",5.67,5.67,2.128,50,–,–
"CC(=O)N1CCC[C@]12CC=CCCCC1(CCCC=CCCCCCC[C@@](C)(C(=O)N[C@@H](Cc3ccccc3)C(=O)N[C@@H](Cc3csc4ccccc34)C(=O)N[C@@H](CCC(N)=O)C(N)=O)NC(=O)[C@H](CC(N)=O)NC(=O)[C@H](Cc3ccccc3)NC(=O)[C@H](C)NC(=O)[C@H](C)NC(=O)[C@H](Cc3nn[nH]n3)NC(=O)[C@H](CC(=O)O)NC1=O)NC(=O)[C@H](C)NC(=O)[C@H](CC(=O)O)NC2=O (stereo partly drawn) [I-444, Ac-PL3-Asp-Ala-B5-Asp-Tetz-Ala-Ala-Phe-Asn-S8-Phe-BztA-Gln-NH2]",7.10,–,–,50,1.99,–
"CC(=O)N1CCC[C@]12CC=CCCCC1(CCCC=CCCCCCC[C@@](C)(C(=O)N[C@@H](Cc3ccccc3)C(=O)N[C@@H](Cc3csc4ccccc34)C(=O)N[C@@H](CCC(N)=O)C(N)=O)NC(=O)[C@H](CC(N)=O)NC(=O)[C@H](Cc3ccccc3)NC(=O)[C@H](C)NC(=O)[C@H](C)NC(=O)[C@H](CC(=O)O)NC(=O)[C@H](Cc3nn[nH]n3)NC1=O)NC(=O)[C@H](C)NC(=O)[C@H](CC(=O)O)NC2=O (stereo partly drawn) [I-445, Ac-PL3-Asp-Ala-B5-Tetz-Asp-Ala-Ala-Phe-Asn-S8-Phe-BztA-Gln-NH2]",5.30,–,–,–,2.05,43
"CC(=O)N1CCC[C@]12CC=CCCCC1(CCCC=CCCCCCC[C@@](C)(C(=O)N[C@@H](Cc3ccccc3)C(=O)N[C@@H](Cc3csc4ccccc34)C(=O)N[C@@H](CCC(N)=O)C(N)=O)NC(=O)[C@H](CC(N)=O)NC(=O)[C@H](Cc3cccs3)NC(=O)[C@H](C)NC(=O)[C@H](C)NC(=O)[C@H](CCC(=O)O)NC(=O)[C@H](CC(=O)O)NC1=O)NC(=O)[C@H](C)NC(=O)[C@H](CC(=O)O)NC2=O (stereo partly drawn) [I-446, Ac-PL3-Asp-Ala-B5-Asp-Glu-Ala-Ala-2Thi-Asn-S8-Phe-BztA-Gln-NH2]",6.89,6.89,1.97,44,–,–
"CC(=O)N1CCC[C@]12CC=CCCCC1(CCCC=CCCCCCC[C@@](C)(C(=O)N[C@@H](Cc3ccccc3)C(=O)N[C@@H](Cc3csc4ccccc34)C(=O)N[C@@H](CCC(N)=O)C(N)=O)NC(=O)[C@H](CC(N)=O)NC(=O)[C@H](Cc3cccs3)NC(=O)[C@H](C)NC(=O)[C@H](C)NC(=O)[C@H](CCC(=O)O)NC(=O)[C@H](CC(=O)O)NC1=O)NC(=O)[C@H](C)NC(=O)[C@H](CC(=O)O)NC2=O (stereo partly drawn) [I-447, Ac-PL3-Asp-Ala-B5-Asp-Glu-Ala-Ala-2Thi-Asn-S8-Phe-BztA-Gln-NH2]",7.13,7.13,1.996,50,–,–
"CC(=O)N1CCC[C@]12CC=CCCCC1(CCCC=CCCCCCC[C@@](C)(C(=O)N[C@@H](Cc3ccccc3)C(=O)N[C@@H](Cc3csc4ccccc34)C(=O)N[C@@H](CCC(N)=O)C(N)=O)NC(=O)[C@H](CC(N)=O)NC(=O)[C@H](Cc3ccsc3)NC(=O)[C@H](C)NC(=O)[C@H](C)NC(=O)[C@H](CCC(=O)O)NC(=O)[C@H](CC(=O)O)NC1=O)NC(=O)[C@H](C)NC(=O)[C@H](CC(=O)O)NC2=O (stereo partly drawn) [I-448, Ac-PL3-Asp-Ala-B5-Asp-Glu-Ala-Ala-3Thi-Asn-S8-Phe-BztA-Gln-NH2]",7.04,7.04,1.976,50,–,–
"CC(=O)N1CCC[C@]12CC=CCCCC1(CCCC=CCCCCCC[C@@](C)(C(=O)N[C@@H](Cc3ccccc3)C(=O)N[C@@H](Cc3csc4ccccc34)C(=O)N[C@@H](CCC(N)=O)C(N)=O)NC(=O)[C@H](CC(N)=O)NC(=O)[C@H](Cc3ccsc3)NC(=O)[C@H](C)NC(=O)[C@H](C)NC(=O)[C@H](CCC(=O)O)NC(=O)[C@H](CC(=O)O)NC1=O)NC(=O)[C@H](C)NC(=O)[C@H](CC(=O)O)NC2=O (stereo partly drawn) [I-449, Ac-PL3-Asp-Ala-B5-Asp-Glu-Ala-Ala-3Thi-Asn-S8-Phe-BztA-Gln-NH2]",7.28,7.28,1.998,30,–,–
"CC(=O)N1CCC[C@]12CC=CCCCC1(CCCC=CCCCCCC[C@@](C)(C(=O)N[C@@H](Cc3cccc(F)c3)C(=O)N[C@@H](Cc3c[nH]c4ccccc34)C(=O)N[C@@H](CCC(N)=O)C(N)=O)NC(=O)[C@H](CCC(N)=O)NC(=O)[C@H](Cc3cccs3)NC(=O)[C@H](C)NC(=O)[C@H](C)NC(=O)[C@H](CCC(=O)O)NC(=O)[C@H](CC(=O)O)NC1=O)NC(=O)[C@H](C)NC(=O)[C@H](CC(=O)O)NC2=O (stereo partly drawn) [I-450, Ac-PL3-Asp-Ala-B5-Asp-Glu-Ala-Ala-2Thi-Gln-S8-3FF-Trp-Gln-NH2]",5.43,–,–,50,1.88,–
"CC(=O)N1CCC[C@]12CC=CCCCC1(CCCC=CCCCCCC[C@@](C)(C(=O)N[C@@H](Cc3cccc(F)c3)C(=O)N[C@@H](Cc3c[nH]c4ccccc34)C(=O)N[C@@H](CCC(N)=O)C(N)=O)NC(=O)[C@H](CCC(N)=O)NC(=O)[C@H](Cc3ccsc3)NC(=O)[C@H](C)NC(=O)[C@H](C)NC(=O)[C@H](CCC(=O)O)NC(=O)[C@H](CC(=O)O)NC1=O)NC(=O)[C@H](C)NC(=O)[C@H](CC(=O)O)NC2=O (stereo partly drawn) [I-452, Ac-PL3-Asp-Ala-B5-Asp-Glu-Ala-Ala-3Thi-Gln-S8-3FF-Trp-Gln-NH2]",5.78,5.78,1.917,50,–,–
"CC(=O)N1CCC[C@]12CC=CCCCC1(CCCC=CCCCCCC[C@@](C)(C(=O)N[C@@H](Cc3ccccc3)C(=O)N[C@@H](Cc3csc4ccccc34)C(=O)N[C@@H](Cc3c[nH]cn3)C(N)=O)NC(=O)[C@H](CC(N)=O)NC(=O)[C@H](Cc3ccccc3)NC(=O)[C@H](C)NC(=O)[C@H](C)NC(=O)[C@H](CC(=O)O)NC(=O)[C@H](CC(=O)O)NC1=O)NC(=O)[C@H](C)NC(=O)[C@H](CC(=O)O)NC2=O (stereo partly drawn) [I-465, Ac-PL3-Asp-Ala-B5-Asp-Asp-Ala-Ala-Phe-Asn-S8-Phe-BztA-His-NH2]",7.09,7.09,2.023,40,–,–
"CC(=O)N1CCC[C@]12CC=CCCCC1(CCCC=CCCCCCC[C@@](C)(C(=O)N[C@@H](Cc3ccccc3)C(=O)N[C@@H](Cc3csc4ccccc34)C(=O)N[C@@H](Cc3c[nH]cn3)C(N)=O)NC(=O)[C@H](CC(N)=O)NC(=O)[C@H](Cc3ccccc3)NC(=O)[C@H](C)NC(=O)[C@H](C)NC(=O)[C@H](CC(=O)O)NC(=O)[C@H](CC(=O)O)NC1=O)NC(=O)[C@H](C)NC(=O)[C@H](CC(=O)O)NC2=O (stereo partly drawn) [I-466, Ac-PL3-Asp-Ala-B5-Asp-Asp-Ala-Ala-Phe-Asn-S8-Phe-BztA-His-NH2]",7.72,7.72,2.069,50,–,–
"CC[C@H](C)[C@@H]1NC(=O)[C@H](CC(=O)O)NC(=O)[C@]2(CC=CCCCC3(CCCC=CCCCCCC[C@@](C)(C(=O)N[C@@H](Cc4ccccc4)C(=O)N[C@@H](Cc4csc5ccccc45)C(=O)N[C@@H](CCC(N)=O)C(N)=O)NC(=O)[C@H](CC(N)=O)NC(=O)[C@H](Cc4ccccc4)NC(=O)[C@H](C)NC(=O)[C@H](C)NC(=O)[C@H](CC(=O)O)NC(=O)[C@H](CC(=O)O)NC3=O)NC1=O)CCCN2C(C)=O (stereo partly drawn) [I-467, Ac-PL3-Asp-Ile-B5-Asp-Asp-Ala-Ala-Phe-Asn-S8-Phe-BztA-Gln-NH2]",7.36,7.36,2.255,50,–,–
"CC[C@H](C)[C@@H]1NC(=O)[C@H](CC(=O)O)NC(=O)[C@]2(CC=CCCCC3(CCCC=CCCCCCC[C@@](C)(C(=O)N[C@@H](Cc4ccccc4)C(=O)N[C@@H](Cc4csc5ccccc45)C(=O)N[C@@H](CCC(N)=O)C(N)=O)NC(=O)[C@H](CC(N)=O)NC(=O)[C@H](Cc4ccccc4)NC(=O)[C@H](C)NC(=O)[C@H](C)NC(=O)[C@H](CC(=O)O)NC(=O)[C@H](CC(=O)O)NC3=O)NC1=O)CCCN2C(C)=O (stereo partly drawn) [I-468, Ac-PL3-Asp-Ile-B5-Asp-Asp-Ala-Ala-Phe-Asn-S8-Phe-BztA-Gln-NH2]",7.57,7.57,2.292,41,–,–
